The nature of the series: Acute toxicity in ip dosed mouse. It is filed as organism-based. The following applies: in vivo.

These results are taken from ChEMBL document CHEMBL1151110, “Biosynthesis of staurosporine, 1. 1H- and 13C-NMR assignments” (J Nat Prod, 1988).

Usually LD50 stands for the dose expected to kill half of the subjects tested. `CN[C@@H]1C[C@H]2O[C@@](C)([C@@H]1OC)n1c3ccccc3c3c4c(c5c6ccccc6n2c5c31)C(=O)NC4.Cl` gave an LD50 of 6.6 mg/kg.
